Source: patent publication US7713988B2, “4,5-diphenyl-pyrimidinylamino substituted carboxylic acids, method for the production and use thereof as medicaments” (Sanofi-Aventis, priority 2006, dated 2010)

Molecular target: T1, GPCR GPR40 (Homo sapiens, UniProt O14842)
T1 construct: expressed in transfected cells; host or cells: HEK293
Experiment: In vitro FLIPR assay with recombinant cells which express the GPCR GPR40 (intracellular Ca2+ change)
Assay type: cell-based
Details: 100 μM test substance; recombinant HEK293 cells expressing GPR40; relative to control (0%: no test substance; 100%: 10 μM reference agonist linoleic acid)
Experimental: In vitro FLIPR assay with recombinant cells which express the GPCR GPR40 Function-testing assays were carried out by means of the FLIPR technique (“Fluorescence Imaging Plate Reader”, Molecular Devices Corp.). For this purpose, agonist-induced changes in the intracellular concentration of Ca^2+ in recombinant HEK293 cells which expressed the GPCR GPR40 were determined.
For the investigations, cells were seeded in 96-well microtiter plates (60 000 cells/well) and allowed to grow overnight. The medium was removed and the cells were incubated in buffer which contained the fluorescent dye fluo-4. After this loading with dye, the cells were washed, test substance was added, and changes in the intracellular Ca^2+ concentration were measured in the FLIPR instrument. Results have been presented as percentage change relative to the control (0%: no test substance added; 100%:10 μM reference agonist linoleic acid added).

T1 sequence (O14842 whole entry): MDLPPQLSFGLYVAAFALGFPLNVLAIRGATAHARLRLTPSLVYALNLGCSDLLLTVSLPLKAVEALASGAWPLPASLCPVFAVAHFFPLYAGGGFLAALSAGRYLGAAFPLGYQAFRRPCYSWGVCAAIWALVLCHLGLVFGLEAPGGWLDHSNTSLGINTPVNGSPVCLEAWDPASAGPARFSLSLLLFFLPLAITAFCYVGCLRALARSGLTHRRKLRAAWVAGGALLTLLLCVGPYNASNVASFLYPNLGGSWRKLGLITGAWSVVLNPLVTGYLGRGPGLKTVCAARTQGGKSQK

Compound | % activation @ 100 μM
O=C(O)C1CCC(CNc2ncc(-c3ccccc3)c(-c3ccccc3)n2)CC1 (stereo not shown) [Example 1, 4-[(4,5-Diphenylpyrimidin-2-ylamino)methyl]cyclohexanecarboxylic acid] | 79%
O=C(O)C(F)(F)F.O=C(O)CCCCCCCNc1ncc(-c2ccccc2)c(-c2ccccc2)n1 [Example 3, 8-(4,5-Diphenylpyrimidin-2-ylamino)octanoic Acid Trifluoroacetate] | 104%
O=C(O)C(F)(F)F.O=C(O)CCCCCCNc1ncc(-c2ccccc2)c(-c2ccccc2)n1 [Example 4, 7-(4,5-Diphenylpyrimidin-2-ylamino)heptanoic Acid Trifluoroacetate] | 94%
O=C(O)C(F)(F)F.O=C(O)CCCCCNc1ncc(-c2ccccc2)c(-c2ccccc2)n1 [Example 5, 6-(4,5-Diphenylpyrimidin-2-ylamino)hexanoic acid trifluoroacetate] | 73%
